Laboratory results taken from ChEMBL document CHEMBL5143665, “Discovery and preclinical evaluations of WX-0593, a novel ALK inhibitor targeting crizotinib-resistant mutations” (Bioorg Med Chem Lett, 2022).
Values belong to the compound of their own block, whether it stands above or below them. The source made the active and inactive calls. No cut-off for these calls is given here.

Key:
cells [1] = conditions: Mus musculus, Ba/F3 EML4-ALK-G1202R, 72 h
BaF3 [2] = experiment: Antiproliferative activity against crizotinib resistant mouse BaF3 cells expressing EML4 fused ALK I1171N mutant assessed as reduction in cell viability incubated for 72 hrs by Celltitre-Glo luminescent assay; assay type: functional, cell-based; conditions: BaF3, 72 h, read-out: IC50
[3] = target: ALK tyrosine kinase receptor (Homo sapiens, UniProt Q9UM73, C1156Y)
ALK tyrosine kinase receptor (Homo sapiens, UniProt Q9UM73, C1156Y), sequence (Q9UM73 19-1620 C1156Y limits assumed): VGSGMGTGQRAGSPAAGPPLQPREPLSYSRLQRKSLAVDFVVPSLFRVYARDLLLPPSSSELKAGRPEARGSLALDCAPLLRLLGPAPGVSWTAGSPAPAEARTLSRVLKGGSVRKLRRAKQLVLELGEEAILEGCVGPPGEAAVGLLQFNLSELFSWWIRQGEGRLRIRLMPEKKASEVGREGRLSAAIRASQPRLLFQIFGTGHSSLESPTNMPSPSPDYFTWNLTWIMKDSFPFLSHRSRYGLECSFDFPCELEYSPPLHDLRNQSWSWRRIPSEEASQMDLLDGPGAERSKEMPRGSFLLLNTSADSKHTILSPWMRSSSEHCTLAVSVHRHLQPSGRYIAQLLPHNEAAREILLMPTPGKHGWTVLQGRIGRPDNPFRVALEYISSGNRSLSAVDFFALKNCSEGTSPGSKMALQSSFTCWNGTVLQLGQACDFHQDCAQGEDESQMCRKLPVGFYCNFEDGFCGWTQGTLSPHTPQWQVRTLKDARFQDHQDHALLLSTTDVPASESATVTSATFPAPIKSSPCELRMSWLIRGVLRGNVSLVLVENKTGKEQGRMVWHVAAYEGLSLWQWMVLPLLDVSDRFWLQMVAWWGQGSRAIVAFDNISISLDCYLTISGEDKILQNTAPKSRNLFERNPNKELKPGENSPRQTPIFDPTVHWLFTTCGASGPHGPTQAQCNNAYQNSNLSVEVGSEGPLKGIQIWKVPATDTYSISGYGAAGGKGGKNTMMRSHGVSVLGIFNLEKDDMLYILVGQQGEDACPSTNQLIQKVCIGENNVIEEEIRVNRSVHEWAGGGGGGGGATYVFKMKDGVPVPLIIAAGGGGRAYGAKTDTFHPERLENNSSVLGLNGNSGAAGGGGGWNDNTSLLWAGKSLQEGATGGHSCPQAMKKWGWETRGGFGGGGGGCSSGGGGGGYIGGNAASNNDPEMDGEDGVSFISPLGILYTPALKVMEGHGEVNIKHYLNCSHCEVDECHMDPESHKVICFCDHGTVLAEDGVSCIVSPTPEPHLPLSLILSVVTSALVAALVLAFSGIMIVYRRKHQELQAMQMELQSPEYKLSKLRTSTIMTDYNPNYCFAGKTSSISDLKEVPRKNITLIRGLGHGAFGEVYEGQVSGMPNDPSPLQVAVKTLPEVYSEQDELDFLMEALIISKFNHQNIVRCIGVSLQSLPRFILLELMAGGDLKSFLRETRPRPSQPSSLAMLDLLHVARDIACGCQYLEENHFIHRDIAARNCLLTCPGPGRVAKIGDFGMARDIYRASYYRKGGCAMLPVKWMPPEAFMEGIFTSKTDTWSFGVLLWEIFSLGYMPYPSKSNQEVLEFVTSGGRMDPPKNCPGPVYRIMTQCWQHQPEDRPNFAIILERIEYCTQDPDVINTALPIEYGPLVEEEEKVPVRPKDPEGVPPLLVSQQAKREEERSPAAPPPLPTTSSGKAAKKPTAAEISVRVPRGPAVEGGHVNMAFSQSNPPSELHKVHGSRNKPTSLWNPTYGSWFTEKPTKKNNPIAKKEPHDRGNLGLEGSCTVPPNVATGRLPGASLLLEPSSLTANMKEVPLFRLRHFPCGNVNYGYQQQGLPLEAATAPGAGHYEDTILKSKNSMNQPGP

[4] = Volume of distribution at steady state in Balb/c nude mouse at 1 mg/kg, iv; assay type: ADME, organism-based; conditions: in vivo, read-out: Vdss
[5] = Cmax in Balb/c nude mouse at 5 mg/kg, po; assay type: ADME, organism-based; parameters: dose 5 mg/kg, route po; conditions: in vivo
[6] = Half-life in Balb/c nude mouse at 1 mg/kg, iv; assay type: ADME, organism-based; conditions: in vivo
NCI-H3122 [7] = experiment: Inhibition of ERK phosphorylation in human NCI-H3122 cells by Western blotting analysis; assay type: cell-based; conditions: DDE = dose-dependent effect
[8] = Cmax in Sprague-Dawley rat at 8 mg/kg, po; assay type: ADME, organism-based; parameters: dose 8 mg/kg, route po; conditions: in vivo
[9] = Toxicity in nude mouse xenografted with crizotinib-resistant patient derived LU-01-0319R cells assessed as body weight change at 2.5 to 10 mg/kg, po dosed once daily for 21 days; assay type: organism-based; conditions: in vivo, 504 h, dose 2.5-10 mg/kg, time 21 day
KARPAS-299 = experiment: cells; conditions: Homo sapiens
Description: Antiproliferative activity against human KARPAS-299 cells harbouring wild type ALK assessed as reduction in cell viability by Celltitre-Glo luminescent assay

BaF3 [10] = experiment: Antiproliferative activity against crizotinib resistant mouse BaF3 cells expressing EML4 fused ALK L1152P mutant assessed as reduction in cell viability incubated for 72 hrs by Celltitre-Glo luminescent assay; assay type: functional, cell-based; conditions: BaF3, 72 h
BaF3 [11] = experiment: Antiproliferative activity against crizotinib resistant mouse BaF3 cells expressing EML4 fused ALK L1152R mutant assessed as reduction in cell viability incubated for 72 hrs by Celltitre-Glo luminescent assay; assay type: functional, cell-based; conditions: BaF3, 72 h
cells [12] = conditions: Mus musculus, Ba/F3 EML4-ALK, 72 h
LU-01-0319R [13] = experiment: Antitumor activity against crizotinib-resistant patient derived LU-01-0319R cells xenografted in nude mouse at 2.5 to 10 mg/kg, po dosed once daily for 21 days; assay type: functional, organism-based; conditions: Homo sapiens, dose 2.5-10 mg/kg, time 21.0 day
BaF3 [14] = experiment: Antiproliferative activity against crizotinib resistant mouse BaF3 cells expressing EML4 fused ALK F1174C mutant assessed as reduction in cell viability incubated for 72 hrs by Celltitre-Glo luminescent assay; assay type: functional, cell-based; conditions: BaF3, 72 h
BaF3 [15] = experiment: Antiproliferative activity against mouse BaF3 cells harbouring SLC34A2-ROS1-L2026M mutant assessed as reduction in cell viability incubated for 72 hrs by Celltitre-Glo luminescent assay; assay type: functional, cell-based; conditions: BaF3, 72 h
cells [16] = conditions: Mus musculus, BaF3, 72 h
cells [17] = conditions: Mus musculus, BaF3, 72 h; remark: listed apart in the source
[18] = Clearance in Beagle dog at 1 mg/kg, iv; assay type: ADME, organism-based, Canis lupus familiaris; conditions: in vivo
[19] = Half-life in Beagle dog at 1 mg/kg, iv; assay type: ADME, organism-based, Canis lupus familiaris; conditions: in vivo
LU-01-0319 = experiment: Antitumor activity against crizotinib-resistant patient derived LU-01-0319 cells xenografted in mouse assessed as tumor regression at 2.5 mg/kg, po; assay type: functional, organism-based; conditions: Homo sapiens
cells [20] = conditions: Mus musculus, BaF3, 72 h; remark: listed apart in the source
[21] = AUC (0 to last) in Sprague-Dawley rat at 8 mg/kg, po; assay type: ADME, organism-based; parameters: time 0 - last, dose 8 mg/kg, route po; conditions: in vivo
BaF3 [22] = experiment: Antiproliferative activity against crizotinib resistant mouse BaF3 cells expressing EML4 fused ALK I1171T mutant assessed as reduction in cell viability incubated for 72 hrs by Celltitre-Glo luminescent assay; assay type: functional, cell-based; conditions: BaF3, 72 h
[23] = AUC (0 to last) in Balb/c nude mouse at 5 mg/kg, po; assay type: ADME, organism-based; parameters: time 0 - last, dose 5 mg/kg, route po; conditions: in vivo
NCI-H3122 [24] = experiment: Inhibition of AKT phosphorylation in human NCI-H3122 cells at highest concentration by Western blotting analysis; assay type: cell-based
[25] = Clearance in Balb/c nude mouse at 1 mg/kg, iv; assay type: ADME, organism-based; conditions: in vivo
BaF3 [26] = experiment: Antiproliferative activity against mouse BaF3 cells harbouring CD74-ROS1-S1986Y mutant assessed as reduction in cell viability incubated for 72 hrs by Celltitre-Glo luminescent assay; assay type: functional, cell-based; conditions: BaF3, 72 h
BaF3 [27] = experiment: Antiproliferative activity against crizotinib resistant mouse BaF3 cells expressing EML4 fused ALK I1171S mutant assessed as reduction in cell viability incubated for 72 hrs by Celltitre-Glo luminescent assay; assay type: functional, cell-based; conditions: BaF3, 72 h
[28] = Volume of distribution at steady state in Beagle dog at 1 mg/kg, iv; assay type: ADME, organism-based, Canis lupus familiaris; conditions: in vivo, read-out: Vdss
[29] = target: T1, Signal transducer and activator of transcription 5A (Homo sapiens) (UniProt P42229); experiment: Inhibition of STAT5 phosphorylation in human NCI-H3122 cells by Western blotting analysis; assay type: cell-based; conditions: DDE = dose-dependent effect
T1 sequence (whole entry): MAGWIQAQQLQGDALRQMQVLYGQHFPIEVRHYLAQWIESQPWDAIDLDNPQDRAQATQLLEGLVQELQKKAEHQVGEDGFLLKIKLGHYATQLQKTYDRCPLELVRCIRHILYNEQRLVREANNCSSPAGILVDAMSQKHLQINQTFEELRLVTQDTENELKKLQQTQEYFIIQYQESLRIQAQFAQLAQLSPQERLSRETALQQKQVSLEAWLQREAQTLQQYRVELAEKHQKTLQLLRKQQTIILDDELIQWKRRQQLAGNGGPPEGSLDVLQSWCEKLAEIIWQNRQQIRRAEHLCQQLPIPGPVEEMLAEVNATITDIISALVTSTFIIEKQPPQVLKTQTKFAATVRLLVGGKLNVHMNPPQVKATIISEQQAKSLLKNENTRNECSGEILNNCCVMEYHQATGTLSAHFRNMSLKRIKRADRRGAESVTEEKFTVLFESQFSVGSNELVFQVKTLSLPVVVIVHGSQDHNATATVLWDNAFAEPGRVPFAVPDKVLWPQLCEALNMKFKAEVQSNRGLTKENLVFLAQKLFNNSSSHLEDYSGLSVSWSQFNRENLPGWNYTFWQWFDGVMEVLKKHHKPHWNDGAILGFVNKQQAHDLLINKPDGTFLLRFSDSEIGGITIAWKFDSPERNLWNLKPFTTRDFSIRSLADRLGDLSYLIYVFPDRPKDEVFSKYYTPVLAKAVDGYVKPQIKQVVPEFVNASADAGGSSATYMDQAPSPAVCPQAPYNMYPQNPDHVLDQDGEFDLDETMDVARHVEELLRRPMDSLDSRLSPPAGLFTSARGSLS

BaF3 [30] = experiment: Antiproliferative activity against crizotinib resistant mouse BaF3 cells expressing EML4 fused ALK V1180L mutant assessed as reduction in cell viability incubated for 72 hrs by Celltitre-Glo luminescent assay; assay type: functional, cell-based; conditions: BaF3, 72 h
[31] = target: T2, ALK tyrosine kinase receptor (Homo sapiens, UniProt Q9UM73)
Target sequence in this assay (Q9UM73 whole entry): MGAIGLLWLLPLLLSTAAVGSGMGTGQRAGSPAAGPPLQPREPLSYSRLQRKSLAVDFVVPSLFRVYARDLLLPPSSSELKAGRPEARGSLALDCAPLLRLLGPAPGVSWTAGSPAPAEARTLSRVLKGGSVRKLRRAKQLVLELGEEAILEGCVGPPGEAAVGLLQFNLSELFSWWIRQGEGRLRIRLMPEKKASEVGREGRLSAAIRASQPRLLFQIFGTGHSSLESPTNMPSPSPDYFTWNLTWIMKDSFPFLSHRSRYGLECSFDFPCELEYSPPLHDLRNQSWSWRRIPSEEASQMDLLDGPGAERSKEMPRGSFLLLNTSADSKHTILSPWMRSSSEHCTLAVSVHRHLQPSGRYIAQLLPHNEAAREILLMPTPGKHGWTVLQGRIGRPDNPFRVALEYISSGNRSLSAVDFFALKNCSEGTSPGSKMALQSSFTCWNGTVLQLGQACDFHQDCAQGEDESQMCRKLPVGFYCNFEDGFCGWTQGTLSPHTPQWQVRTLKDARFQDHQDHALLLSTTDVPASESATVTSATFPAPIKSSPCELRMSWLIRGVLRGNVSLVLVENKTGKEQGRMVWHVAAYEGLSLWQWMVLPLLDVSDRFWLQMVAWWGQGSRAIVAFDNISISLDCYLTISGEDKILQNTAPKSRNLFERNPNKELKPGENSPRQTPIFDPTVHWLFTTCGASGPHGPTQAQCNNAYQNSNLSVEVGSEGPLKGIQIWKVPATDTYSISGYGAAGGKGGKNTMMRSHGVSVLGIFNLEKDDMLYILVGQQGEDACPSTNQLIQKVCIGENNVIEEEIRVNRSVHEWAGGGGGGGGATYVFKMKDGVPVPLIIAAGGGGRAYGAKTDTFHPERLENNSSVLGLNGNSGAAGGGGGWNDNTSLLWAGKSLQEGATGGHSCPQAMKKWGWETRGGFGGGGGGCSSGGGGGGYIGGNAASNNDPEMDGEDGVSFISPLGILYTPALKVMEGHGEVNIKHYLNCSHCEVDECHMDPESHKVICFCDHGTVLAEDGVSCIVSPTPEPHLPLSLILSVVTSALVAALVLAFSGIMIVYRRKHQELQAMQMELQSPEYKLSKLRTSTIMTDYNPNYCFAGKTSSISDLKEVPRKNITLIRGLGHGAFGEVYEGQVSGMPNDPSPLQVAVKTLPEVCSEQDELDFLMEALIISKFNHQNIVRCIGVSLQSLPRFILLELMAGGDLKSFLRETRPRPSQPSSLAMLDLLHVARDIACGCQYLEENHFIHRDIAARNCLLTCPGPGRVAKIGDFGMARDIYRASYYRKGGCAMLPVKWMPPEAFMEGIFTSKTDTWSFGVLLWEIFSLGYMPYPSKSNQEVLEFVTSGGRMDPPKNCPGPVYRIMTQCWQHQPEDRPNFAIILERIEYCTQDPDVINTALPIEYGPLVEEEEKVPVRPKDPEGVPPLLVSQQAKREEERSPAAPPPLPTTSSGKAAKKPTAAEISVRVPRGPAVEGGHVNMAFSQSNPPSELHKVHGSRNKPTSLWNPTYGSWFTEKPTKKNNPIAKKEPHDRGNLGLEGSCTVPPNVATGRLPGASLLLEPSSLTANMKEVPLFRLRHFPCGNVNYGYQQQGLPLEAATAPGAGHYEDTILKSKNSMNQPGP

[32] = AUC (0 to last) in Cynomolgus monkey at 2 mg/kg, po; assay type: ADME, organism-based, Macaca fascicularis; parameters: time 0 - last, dose 2 mg/kg, route po; conditions: in vivo
[33] = Cmax in Cynomolgus monkey at 2 mg/kg, po; assay type: ADME, organism-based, Macaca fascicularis; parameters: dose 2 mg/kg, route po; conditions: in vivo
BaF3 [34] = experiment: Antiproliferative activity against mouse BaF3 cells harbouring CD74-ROS1-D2033N mutant assessed as reduction in cell viability incubated for 72 hrs by Celltitre-Glo luminescent assay; assay type: functional, cell-based; conditions: BaF3, 72 h
BaF3 [35] = experiment: cells; conditions: Mus musculus
Description: Antiproliferative activity against mouse BaF3 cells harbouring ALK wild type assessed as reduction in cell viability by Celltitre-Glo luminescent assay

LU-01-0319R [36] = experiment: Antitumor activity against crizotinib-resistant patient derived LU-01-0319R cells xenografted in nude mouse assessed as tumor regression at 10 mg/kg, po dosed once daily for 21 days; assay type: functional, organism-based; conditions: Homo sapiens, time 21.0 day
[37] = Oral bioavailability in Balb/c nude mouse at 5 mg/kg; assay type: ADME, organism-based; conditions: in vivo
BaF3 [38] = experiment: Antiproliferative activity against mouse BaF3 cells harbouring CD74-ROS1-S1986F mutant assessed as reduction in cell viability incubated for 72 hrs by Celltitre-Glo luminescent assay; assay type: functional, cell-based; conditions: BaF3, 72 h
BaF3 [39] = experiment: cells; conditions: Mus musculus; remark: listed apart in the source
Description: Antiproliferative activity against mouse BaF3 cells harbouring ALK L1196M mutant assessed as reduction in cell viability by Celltitre-Glo luminescent assay

[40] = Toxicity in nude mouse xenografted with crizotinib-resistant patient derived LU-01-0319R cells assessed as tolerance at 2.5 to 10 mg/kg, po dosed once daily for 21 days; assay type: organism-based; conditions: in vivo, 504 h, dose 2.5-10 mg/kg, time 21 day
BaF3 [41] = experiment: Antiproliferative activity against crizotinib resistant mouse BaF3 cells expressing EML4 fused ALK F1174V mutant assessed as reduction in cell viability incubated for 72 hrs by Celltitre-Glo luminescent assay; assay type: functional, cell-based; conditions: BaF3, 72 h
[42] = target: T2, ALK tyrosine kinase receptor; experiment: Inhibition of ALK phosphorylation in human NCI-H3122 cells by Western blotting analysis; assay type: cell-based; conditions: DDE = dose-dependent effect
Target sequence in this assay (Q9UM73 19-1620 limits assumed): as the sequence (Q9UM73 19-1620 C1156Y limits assumed) above, with Y1138C counted along it

BaF3 [43] = experiment: cells; conditions: Mus musculus; remark: listed apart in the source
Description: Antiproliferative activity against mouse BaF3 cells harbouring ALK C1156Y mutant assessed as reduction in cell viability by Celltitre-Glo luminescent assay

BaF3 [44] = experiment: Antiproliferative activity against crizotinib resistant mouse BaF3 cells expressing EML4 fused ALK T1151Tins mutant assessed as reduction in cell viability incubated for 72 hrs by Celltitre-Glo luminescent assay; assay type: functional, cell-based; conditions: BaF3, 72 h, read-out: IC50
[45] = Half-life in mouse at 1 mg/kg, iv; assay type: ADME, organism-based; conditions: in vivo
[46] = Oral bioavailability in mouse at 10 mg/kg; assay type: ADME, organism-based; conditions: in vivo
[47] = Cmax in mouse at 10 mg/kg, po; assay type: ADME, organism-based; parameters: dose 10 mg/kg, route po; conditions: in vivo
[48] = Volume of distribution at steady state in mouse at 1 mg/kg, iv; assay type: ADME, organism-based; conditions: in vivo, read-out: Vdss
[49] = AUC (0 to last) in mouse at 10 mg/kg, po; assay type: ADME, organism-based; parameters: time 0 - last, dose 10 mg/kg, route po; conditions: in vivo
[50] = Clearance in mouse at 1 mg/kg, iv; assay type: ADME, organism-based; conditions: in vivo

- IC50 (cells [1]): 96 nM
- IC50 (BaF3 [2]): 17 nM
- IC50 [3]: 1.8 nM
- Vd [4]: 2.33 L/kg
- Cmax [5]: 741 ng/mL
- half-life [6]: 82.8 min
- Cmax [8]: 499 ng/mL
- IC50 (KARPAS-299): 14.5 nM
- IC50 (BaF3 [10]): 1 nM
- IC50 (BaF3 [11]): 4 nM
- IC50 (cells [12]): 21 nM
- IC50 (BaF3 [14]): 36 nM
- IC50 (BaF3 [15]): 12 nM
- IC50 (cells [16]): 11 nM
- IC50 (cells [17]): 36 nM
- clearance [18]: 8.6 mL/min/kg
- half-life [19]: 388 min
- IC50 (cells [20]): 36 nM
- AUC(0-t) [21]: 4000 ng·h/mL
- IC50 (BaF3 [22]): 11 nM
- AUC(0-t) [23]: 2450 ng·h/mL
- clearance [25]: 22.4 mL/min/kg
- IC50 (BaF3 [26]): 15 nM
- IC50 (BaF3 [27]): 32 nM
- Vd [28]: 4.6 L/kg
- inhibition [29]: Dde
- IC50 (BaF3 [30]): 8 nM
- IC50 [31]: 1.6 nM
- AUC(0-t) [32]: 598 ng·h/mL
- Cmax [33]: 92.2 ng/mL
- IC50 (BaF3 [34]): 33 nM
- IC50 (BaF3 [35]): 13 nM
- bioavailability [37]: 66.2%
- IC50 (BaF3 [38]): 22 nM
- IC50 (BaF3 [39]): 24 nM
- IC50 (BaF3 [41]): 22 nM
- inhibition [42]: Dde
- IC50 (BaF3 [43]): 21 nM
- IC50 (BaF3 [44]): 12 nM
Structure (SMILES): COc1cc(N2CCC3(CCN(C)CC3)CC2)ccc1Nc1ncc(Cl)c(Nc2ccccc2P(C)(C)=O)n1 [IRUPLINALKIB]
- inhibition (NCI-H3122 [7]): Dde
- Activity [9]: Non-Toxic
- Activity (LU-01-0319R [13]): Active
- Activity (LU-01-0319): Active
- inhibition (NCI-H3122 [24]): Active
- Activity (LU-01-0319R [36]): Active
- Activity [40]: Non-Toxic

- half-life [45]: 216 min
- bioavailability [46]: 18.5%
- IC50 (KARPAS-299): 77 nM
- Cmax [47]: 977 ng/mL
- Vd [48]: 1.3 L/kg
- AUC(0-t) [49]: 1630 ng·h/mL
- clearance [50]: 20.1 mL/min/kg
Structure (SMILES): COc1cc(N2CCC3(CCNCC3)CC2)ccc1Nc1ncc(Cl)c(Nc2ccccc2P(C)(C)=O)n1

- IC50 (KARPAS-299): 20 nM
- IC50 (BaF3 [35]): 8 nM
- IC50 (BaF3 [39]): 18 nM
- IC50 (BaF3 [43]): 17 nM
Structure (SMILES): COc1cc(N2CCC3(CCN(C)CC3)CC2)ccc1Nc1ncc(Cl)c(Nc2ccc(F)cc2P(C)(C)=O)n1
